# PMC5458078, “Global mapping of CARM1 substrates defines enzyme specificity and substrate recognition” (Nature Communications, 2017)
# Tested on: MCF7 CARM1 KO cells
# Test: Quantitative MS of ADMA-containing peptides in MCF7 CARM1 KO cells expressing CARM1 28-608 or CARM1 140-608, and in CARM1 KO
# Assay type: cell-based, human
# Details: CARM1 140-608 vs WT, mean of 3 replicates, log2
row,Substance,CARM1 140-608/WT
1,VELPTCMYrLPNVHGR,-1.403
2,VLGIIPSSTGTSQQTFTSFQPrTATVTIrPNTSGSGGTTSNSQVITGPQIrPGMTVIrTPLQQSTLGK,-2.572
3,VREELLrHQLLEK,-2.55

# Same assay, conditions: KO vs WT, mean of 3 replicates, log2
row,Substance,KO/WT
1,VELPTCMYrLPNVHGR,-3.7411
2,VLGIIPSSTGTSQQTFTSFQPrTATVTIrPNTSGSGGTTSNSQVITGPQIrPGMTVIrTPLQQSTLGK,-6.437
3,VREELLrHQLLEK,-4.282

# Same assay, conditions: difference of log2 means, CARM1 140-608 vs WT
row,Substance,CARM1 140-608/WT
1,SPVAPPLGPrYAVFPK,2.312
2,STArFTLNPNPTGVQNPHIER,-1.926
3,STLKPQPAPQAGPIPVAPIGTLKPQPQPVPASYTTASTSSrPTFNVQVK,-2.676
4,TSGELGPFNNGASYPLQAGQPrLTK,-2.866
5,TSVYrQQQPAVPQGQrLrQQLQAK,-3.863
6,VGSSNFrGGLGGGYGGASGMGGITAVTVNQSLLSPLVLEVDPNIQAVR,-0.9286
7,VSTSGPrAFSSR,-3.216
8,VSTSGPrAFSSrSYTSGPGSR,-3.492
9,VSTSGPrAFSSrSYTSGPGSrISSSSFSR,-2.338
10,VTrYPILGIPQAHR,-2.491

# Same assay, conditions: difference of log2 means, KO vs WT
row,Substance,KO/WT
1,SPVAPPLGPrYAVFPK,-0.9897
2,STArFTLNPNPTGVQNPHIER,-2.347
3,STLKPQPAPQAGPIPVAPIGTLKPQPQPVPASYTTASTSSrPTFNVQVK,-3.941
4,TSGELGPFNNGASYPLQAGQPrLTK,-4.63
5,TSVYrQQQPAVPQGQrLrQQLQAK,-4.228
6,VGSSNFrGGLGGGYGGASGMGGITAVTVNQSLLSPLVLEVDPNIQAVR,-0.7814
7,VSTSGPrAFSSR,-3.388
8,VSTSGPrAFSSrSYTSGPGSR,-3.7435
9,VSTSGPrAFSSrSYTSGPGSrISSSSFSR,-2.338
10,VTrYPILGIPQAHR,-2.966

# Same assay, conditions: log2 scale ratio, mean of n = 3
Substance,CARM1 140-608/WT,KO/WT
SPFLGSArPrLrFSPYQIPVTIPPSTSLLTTGLASEGSK,-2.053,-3.915
TAAALAPASLTSArMAPALSGANLTSPrVPLSAYER,-2.654,-3.829
TPTATTSGIrATLTPTVLAPR,0.4696,-2.089
TPTATTSGIrATLTPTVLAPrLPQPPQNPTNIQNFQLPPGMVLVR,0.4964,-3.04
VQTHLENPTrYHLQQAR,-1.396,-1.173
VrATSVLPrYGPPCLFK,-1.769,-2.652

# Same assay, conditions: mean, CARM1 140-608 versus WT (log2 scale)
row,Substance,CARM1 140-608/WT
1,TVPMGGVrLVTPVTVSAVKPAVTTLVVK,-0.6483
2,VPrFSSLSSCNPPAMATSAEK,-1.357

# Same assay, conditions: mean, CARM1 KO versus WT (log2 scale)
row,Substance,KO/WT
1,TVPMGGVrLVTPVTVSAVKPAVTTLVVK,-2.889
2,VPrFSSLSSCNPPAMATSAEK,-1.804

# Same assay, conditions: ratio on log2 scale, mean of 3 replicates
Substance,CARM1 140-608/WT,KO/WT
SPLLNQPVPELSHASLIANQSPFrAPLNVTNTAGTSLPSVDLLQK,-2.179,-2.328
STNPELPPrLGPVPSGLSQK,-2.1,-2.804
TGALPGPGPLSNPrLGGLPGPGPMSNPR,-0.9797,-1.901
TRNPFLTGLSAPSPTNPFGAGEPGrPTLNQMR,-1.179,-1.766
TYQASSAAFrYTAGTPYK,-4.171,-4.425

# Tested on: MCF7 cells
# Test: Quantitative nanoLC-MS/MS (TMT) of ADMA-containing peptides, CARM1 KO vs parental
# Assay type: cell-based, human
# Parameters: Fold change KO/WT: scale not given here
# Details: ADMA-containing peptide, CARM1 knockout (KO) vs wild type (WT) MCF7 cells; 6-plex TMT experiment #1; three biological replicates each; sheet "MCF7"
row,Substance,Fold change KO/WT
1,STArFTLNPNPTGVQNPHIER,-1.9764
2,TSGELGPFNNGASYPLQAGQPrLTK,-4.512
3,TSVYrQQQPAVPQGQrLrQQLQAK,-4.048
4,VTrYPILGIPQAHR,-1.789

# Same assay, conditions: ADMA-containing peptide, MCF7, CARM1 knockout (KO1-3) vs wild type (WT1-3), TMT 6-plex experiment #1
row,Substance,Fold change KO/WT
1,SPFLGSArPrLrFSPYQIPVTIPPSTSLLTTGLASEGSK,-3.915
2,TAAALAPASLTSArMAPALSGANLTSPrVPLSAYER,-3.829
3,TPTATTSGIrATLTPTVLAPR,-1.669
4,TPTATTSGIrATLTPTVLAPrLPQPPQNPTNIQNFQLPPGMVLVR,-3.04
5,VQTHLENPTrYHLQQAR,-1.173
6,VrATSVLPrYGPPCLFK,-2.652

# Same assay, conditions: MCF7, CARM1 KO vs WT, three biological replicates each
row,Substance,Fold change KO/WT
1,TGALPGPGPLSNPrLGGLPGPGPMSNPR,-3.491
2,VELPTCMYrLPNVHGR,-2.379
3,VLGIIPSSTGTSQQTFTSFQPrTATVTIrPNTSGSGGTTSNSQVITGPQIrPGMTVIrTPLQQSTLGK,-6.437
4,VREELLrHQLLEK,-4.282

# Same assay, conditions: MCF7, CARM1 knockout vs wild type, n = 3 each
row,Substance,Fold change KO/WT
1,SPLLNQPVPELSHASLIANQSPFrAPLNVTNTAGTSLPSVDLLQK,-2.328
2,STNPELPPrLGPVPSGLSQK,-2.804
3,TRNPFLTGLSAPSPTNPFGAGEPGrPTLNQMR,-1.766
4,TVPMGGVrLVTPVTVSAVKPAVTTLVVK,-2.889
5,TYQASSAAFrYTAGTPYK,-4.425
6,VPrFSSLSSCNPPAMATSAEK,-1.804

# Same assay, conditions: MCF7 CARM1 knockout vs wild type, 3 biological replicates each; values are on log2 scale
row,Substance,Fold change KO/WT
1,SPVAPPLGPrYAVFPK,-2.706
2,STLKPQPAPQAGPIPVAPIGTLKPQPQPVPASYTTASTSSrPTFNVQVK,-3.941
3,VGSSNFrGGLGGGYGGASGMGGITAVTVNQSLLSPLVLEVDPNIQAVR,-0.7814
4,VSTSGPrAFSSR,-3.388
5,VSTSGPrAFSSrSYTSGPGSR,-3.7435
6,VSTSGPrAFSSrSYTSGPGSrISSSSFSR,-2.338
